Measurements: ChEMBL document CHEMBL3885881, “DrugMatrix”

Species: Rattus norvegicus
Assay: DrugMatrix - Regimen: Daily Repeat
Format: toxicity, organism-based, Sprague-Dawley
Parameters: regimen Daily Repeat, gender Male, age 6-8 weeks
Conditions: in vivo, po, route oral GAVAGE, vehicle 100 % WATER; for ABSOLUTE BASOPHIL / ABSOLUTE EOSINOPHIL / ABSOLUTE LYMPHOCYTE / ABSOLUTE MONOCYTE / ABSOLUTE SEGMENTED NEUTROPHIL / BASOPHIL / EOSINOPHIL / ERYTHROCYTE COUNT / HEMATOCRIT / HEMOGLOBIN / LEUKOCYTE COUNT / LYMPHOCYTE / MEAN CORPUSCULAR HEMOGLOBIN / MEAN CORPUSCULAR HEMOGLOBIN CONCENTRATION / MEAN CORPUSCULAR VOLUME / MONOCYTE / NEUTROPHIL / NUCLEATED RED BLOOD CELLS / PLATELET COUNT: tissue Blood; for ALANINE AMINOTRANSFERASE / ALBUMIN / ALKALINE PHOSPHATASE / ASPARTATE AMINOTRANSFERASE / BLOOD UREA NITROGEN / CARBON DIOXIDE / CHLORIDE / CHOLESTEROL / CREATINE PHOSPHOKINASE / CREATININE / GLUCOSE / LACTATE DEHYDROGENASE / LIPASE / PHOSPHORUS / POTASSIUM / SODIUM / TOTAL BILIRUBIN / TOTAL PROTEIN / URIC ACID: tissue Plasma
[1] = 0 mg/kg, 72 h, dose level Control, time 3 day
[2] = 0 mg/kg, 120 h, dose level Control, time 5 day
[3] = 58 mg/kg, 72 h, dose level Low, time 3 day

## Cc1cn([C@H]2C=C[C@@H](CO)O2)c(=O)[nH]c1=O [STAVUDINE]
[1]
  ABSOLUTE BASOPHIL: 0 CELLS/uL
  ABSOLUTE EOSINOPHIL: 0 CELLS/uL
  ABSOLUTE LYMPHOCYTE: 8482.5 CELLS/uL
  ABSOLUTE MONOCYTE: 63.83 CELLS/uL
  ABSOLUTE SEGMENTED NEUTROPHIL: 887 CELLS/uL
  BASOPHIL: 0%
  EOSINOPHIL: 0%
  ERYTHROCYTE COUNT: 5.49 x10E6/uL
  HEMATOCRIT: 34.5%
  HEMOGLOBIN: 13.33 G/DL
  LEUKOCYTE COUNT: 9.43 x10E3/uL
  LYMPHOCYTE: 90.17%
  MEAN CORPUSCULAR HEMOGLOBIN: 24.3 pg
  MEAN CORPUSCULAR HEMOGLOBIN CONCENTRATION: 38.63 G/DL
  MEAN CORPUSCULAR VOLUME: 62.88 fL
  MONOCYTE: 0.67%
  NEUTROPHIL: 9.17%
  NUCLEATED RED BLOOD CELLS: 0.67 /100WBC
  PLATELET COUNT: 1022.83 x10E3/uL
  ALANINE AMINOTRANSFERASE: 50.5 u/L
  ALBUMIN: 4.08 G/DL
  ALKALINE PHOSPHATASE: 368.33 u/L
  ASPARTATE AMINOTRANSFERASE: 87.5 u/L
  BLOOD UREA NITROGEN: 12.83 mg/dL
  CARBON DIOXIDE: 32.83 mmol/L
  CHLORIDE: 99.67 MEQ/L
  CHOLESTEROL: 79.67 mg/dL
  CREATINE PHOSPHOKINASE: 585 u/L
  CREATININE: 0.22 mg/dL
  GLUCOSE: 135.67 mg/dL
  LACTATE DEHYDROGENASE: 171 u/L
  LIPASE: 9.5 u/L
  PHOSPHORUS: 11.18 mg/dL
  POTASSIUM: 6.25 MEQ/L
  SODIUM: 144.87 MEQ/L
  TOTAL BILIRUBIN: 0.2 mg/dL
  TOTAL PROTEIN: 6.08 G/DL
  URIC ACID: 0.65 mg/dL
[2]
  ABSOLUTE BASOPHIL: 0 CELLS/uL
  ABSOLUTE EOSINOPHIL: 14.5 CELLS/uL
  ABSOLUTE LYMPHOCYTE: 7596.17 CELLS/uL
  ABSOLUTE MONOCYTE: 69.67 CELLS/uL
  ABSOLUTE SEGMENTED NEUTROPHIL: 503 CELLS/uL
  BASOPHIL: 0%
  EOSINOPHIL: 0.17%
  ERYTHROCYTE COUNT: 5.49 x10E6/uL
  HEMATOCRIT: 34.72%
  HEMOGLOBIN: 13.47 G/DL
  LEUKOCYTE COUNT: 8.18 x10E3/uL
  LYMPHOCYTE: 92.17%
  MEAN CORPUSCULAR HEMOGLOBIN: 24.57 pg
  MEAN CORPUSCULAR HEMOGLOBIN CONCENTRATION: 38.82 G/DL
  MEAN CORPUSCULAR VOLUME: 63.3 fL
  MONOCYTE: 1%
  NEUTROPHIL: 6.67%
  NUCLEATED RED BLOOD CELLS: 0 /100WBC
  PLATELET COUNT: 1141 x10E3/uL
  ALANINE AMINOTRANSFERASE: 48.33 u/L
  ALBUMIN: 4.07 G/DL
  ALKALINE PHOSPHATASE: 395.67 u/L
  ASPARTATE AMINOTRANSFERASE: 85.67 u/L
  BLOOD UREA NITROGEN: 15.83 mg/dL
  CARBON DIOXIDE: 31.33 mmol/L
  CHLORIDE: 100.83 MEQ/L
  CHOLESTEROL: 62.33 mg/dL
  CREATINE PHOSPHOKINASE: 248.33 u/L
  CREATININE: 0.2 mg/dL
  GLUCOSE: 135.67 mg/dL
  LACTATE DEHYDROGENASE: 141.33 u/L
  LIPASE: 9.5 u/L
  PHOSPHORUS: 10.73 mg/dL
  POTASSIUM: 6.07 MEQ/L
  SODIUM: 145.35 MEQ/L
  TOTAL BILIRUBIN: 0.22 mg/dL
  TOTAL PROTEIN: 6.12 G/DL
  URIC ACID: 0.63 mg/dL
[3]
  ABSOLUTE BASOPHIL: 0 CELLS/uL
  ABSOLUTE EOSINOPHIL: 22.67 CELLS/uL
  ABSOLUTE LYMPHOCYTE: 7881 CELLS/uL
  ABSOLUTE MONOCYTE: 172.33 CELLS/uL
  ABSOLUTE SEGMENTED NEUTROPHIL: 1024 CELLS/uL
  BASOPHIL: 0%
  EOSINOPHIL: 0.33%
  ERYTHROCYTE COUNT: 5.09 x10E6/uL
  HEMATOCRIT: 32.43%
  HEMOGLOBIN: 12.77 G/DL
  LEUKOCYTE COUNT: 9.1 x10E3/uL
  LYMPHOCYTE: 86.67%
  MEAN CORPUSCULAR HEMOGLOBIN: 25.1 pg
  MEAN CORPUSCULAR HEMOGLOBIN CONCENTRATION: 39.37 G/DL
  MEAN CORPUSCULAR VOLUME: 63.77 fL
  MONOCYTE: 2%
  NEUTROPHIL: 11%
  NUCLEATED RED BLOOD CELLS: 1 /100WBC
  PLATELET COUNT: 1073 x10E3/uL
  ALANINE AMINOTRANSFERASE: 58.67 u/L
  ALBUMIN: 4.17 G/DL
  ALKALINE PHOSPHATASE: 410.33 u/L
  ASPARTATE AMINOTRANSFERASE: 82.67 u/L
  BLOOD UREA NITROGEN: 12 mg/dL
  CARBON DIOXIDE: 33 mmol/L
  CHLORIDE: 99 MEQ/L
  CHOLESTEROL: 75 mg/dL
  CREATINE PHOSPHOKINASE: 267 u/L
  CREATININE: 0.33 mg/dL
  GLUCOSE: 133.33 mg/dL
  LACTATE DEHYDROGENASE: 130.33 u/L
  LIPASE: 10 u/L
  PHOSPHORUS: 11.33 mg/dL
  POTASSIUM: 6.27 MEQ/L
  SODIUM: 145.07 MEQ/L
  TOTAL BILIRUBIN: 0.23 mg/dL
  TOTAL PROTEIN: 6 G/DL
  URIC ACID: 0.77 mg/dL
